Test results published in US12600742B2, “Markers, conjugates, compositions and methods for hypoxia imaging, mapping, and therapy” (WWIKY BIOSCIENCES INC., priority 2017, dated 2026).

Assays:
FaDu cells [1] = experiment: Cell proliferation assay (cell counts); assay type: cell-based, human; settings: 100 μM, alone or in combination with 5 Gy IR
Procedure: (§1) Human head and neck squamous cell carcinoma cell line, FaDu, was purchased from American Type Culture Collection (ATCC HTB-43). FaDu cells were cultured in Dulbecco's Modified Eagle's medium/Nutrient Mixture F-12 media supplemented with 10% Fetal bovine serum, 2 mM L-glutamine and 10% Penicillin Streptomycin. Cells were cultured in a humidified incubator at 37° C. with 5% CO2.
(§2) Hypoxic cytotoxicity of ACN was evaluated using colony formation assay. FaDu cells were seeded on 60 mm glass petri dishes (in triplicates) at a density of 300 cells per plate. Cells were allowed to attach for 24 hours, followed by treatment with 1 μM, 10 μM and 100 μM of freshly dissolved ACN for 24 hours under normoxia (20% O2) or hypoxia (1% O2 and <0.1% O2); 100 μM DMSO was used as vehicle control. Cells were allowed to grow and form colonies for 14 days. Colonies were stained with crystal violet, counted and plotted as percentage of vehicle conditions; error bars show standard error of the means. […] Colonies were stained with crystal violet, counted and plotted as percentage of vehicle (DMSO) controls; error bars represent standard error of the means. […] 1 hr following IR, cells were trypsinized, counted, and seeded on 24 well plates in triplicates at a density of 50,000 cells per well. Cells were trypsinized 1, 3, 5 and 7 days after re-plating, and counted with a Z2 coulter particle counter.

FaDu cells [2] = experiment: Hypoxic cytotoxicity of ACN, colony formation assay; assay type: cell-based, human; settings: concentrations up to 100 μM, 24 h, normoxia (20% O2) or hypoxia (1% O2 and <0.1% O2)
Procedure: as §1, §2

FaDu cells [3] = experiment: Retention profile of ACN in hypoxic cells following re-oxygenation; assay type: cell-based, human; settings: 100 μM
Procedure: After bioreductive activation under hypoxia, nitroimidazole reactive species (nitroradical anion) bind to cellular nucleophiles to form drug-protein adducts. To evaluate how fast these adducts are metabolized, we treated FaDu cells with 100 μM of ACN under normoxia or anoxia for 6 hours, and exposed them to subsequent re-oxygenation. Cells were fixed after 0 hr, 1 hr, 3 hr, 6 hr and 18 hr of re-oxygenation. Click chemistry was performed on fixed cells as previously described.

FaDu cells [4] = experiment: Radiosensitization potential of ACN, colony formation assay with 5 Gy IR; assay type: cell-based, human; settings: 100 μM ACN and 5 Gy IR, normoxia or hypoxia (<0.1% O2)
Procedure: as §1, §2

FaDu cells [5] = experiment: In vitro inverse oxygen dependent entrapment of ACN, click chemistry fluorescence; assay type: cell-based, human
Procedure: The Click-IT reaction cocktail (Molecular Probes) was made up according to the manufacturer's directions using a 1:5000 dilution of the 2 mg/ml Alexafluor 555 or 594 conjugated alkyne stock (Molecular Probes). The reaction cocktail was used within 15 minutes of preparation. All reactions were done at room temperature in the dark.
Subconfluent FaDu cells were trypsinized, and approximately 3-5×10^5 cells were seeded in 35 mm tissue culture plates containing sterilized […] glass coverslips. Cells were allowed to grow overnight, and treated with different concentrations of ACN (1 μM, 10 μM and 100 μM) under normoxia (20% Oxygen), hypoxia (1% Oxygen) or anoxia (0% Oxygen) for 6 hours. Hypoxia and anoxia were achieved using an in house de-gassing system. Post-treatment, all steps were carried out at room temperature. Cells were washed three to five times with 1×PBS, fixed in 2% paraformaldehyde (PFA) for 20 minutes, and washed again three times with 1×PBS. The fixed cells were then blocked and permeabilized with 1% BSA in 1×PBS containing 0.1% Triton-100 for 20 minutes, followed by incubation with click cocktail containing Alexafluor 594 conjugated alkyne for 30 minutes. Subsequently cells were washed and stained with Hoechst 33342 (1:10000 dilution in PBS, Life Technologies) for 5 minutes before mounting them on glass slides (Fluoroshield Mounting Medium, abcam). The prepared slides were kept at 4° C. until imaged. Images were obtained by with a Plan-Apochromat 40X/1.3 Oil DIC lens on a Zeiss 710 confocal microscope using Zen 2011 software.

FaDu xenograft tumors = experiment: Assessment of ACN as a hypoxia tracer in tumor-bearing mice; assay type: in vivo, BALB/c nude mice; settings: 80 mg/Kg intraperitoneally, 2 hours post-injection
Procedure: Female BALB/c nude mice (Charles River Laboratories) aged 6 weeks were used and cared for according to the CCAC guidelines. We used a biflanked sub-cutaneous tumor model where the tumor in the left flank was untreated (control) and the tumor in the right flank served as the ‘treatment’ group. We subcutaneously injected 6×10^6 FaDu cells in 0.1 ml of sterile 0.9% NaCl into the upper right flank to form palpable tumors. The tumors were measured daily until the volume reached 10 mm3. The mice were divided into 4 groups and injected intraperitoneally in 0.15 ml 0.9% saline with: 1-80 mg/Kg ACN, 2-80 mg/Kg pimonidazole (Hypoxyprobe), 3-80 mg/Kg ACN:pimonidazole in a 1:1 ratio and 4-0.9% saline control. Mice were sacrificed 2 hours post-injection, tumors removed and frozen in OCT. Seven micron serial sections were taken of each tumor, dried and stored at −80° C.
Tissue sections were air dried for 25 minutes, fixed for 5 minutes in −20° C. acetone; air dried 25 minutes and blocked in PBS with 1% BSA for 20 minutes. Sections were incubated with primary antibodies for small vessel endothelium [1:100 rabbit anti-CD34 (abcam)] or hypoxia [1:100 rabbit anti-pimonidazole Hypoxyprobe)] for 2 hours at room temperature, followed by 3 five minute washes in 1×PBS. […]

FaDu cells [6] = experiment: Comparison of hypoxia selective uptake of ACN and Pimonidazole in vitro; assay type: cell-based, human
Procedure: FaDu cells were grown on coverslips (as described above) and treated simultaneously with 100 μM ACN and 100 μM Pimonidazole. The cells were subsequently exposed to normoxic (20% Oxygen), hypoxic (1% Oxygen) or anoxic (0% Oxygen) conditions for 6 hours, and fixed in 2% PFA. Standard Pimonidazole IHC was performed as described elsewhere using an Alexafluor 647 labelled secondary antibody. Click chemistry was performed as previously described using an Alexafluor 555 conjugated alkyne followed by nuclear staining with Hoechst. Mounted coverslips on glass slides were imaged as described earlier.

[N-]=[N+]=NCC1OC(n2ccnc2[N+](=O)[O-])[C@H](O)[C@H]1O (some centres unmarked) [ACN, 5’-azido-arabinofuranosyl-2-nitroimidazole]
cell counts compared to vehicle control (FaDu cells [1]): did not generate significant difference in cell counts | hypoxia-selective cytotoxicity (colony formation) (FaDu cells [2]): did not show any hypoxia-selective cytotoxicity | time after re-oxygenation up to which signal for ACN-protein adducts could be detected (FaDu cells [3]; 6 h anoxia then re-oxygenation): up to 6 hours | signal after 18 hours re-oxygenation (FaDu cells [3]; 18 hours re-oxygenation): very faint signal | hypoxic radiosensitization (colony formation) (FaDu cells [4]): No hypoxic radiosensitization was observed | entrapment in cells versus oxygen level (click signal) (FaDu cells [5]; 1, 10, 100 μM, 6 h, normoxia, hypoxia, <0.1% O2): entrapped in FaDu cells in an inverse oxygen dependent manner | dose dependence of entrapment in hypoxic cells (FaDu cells [5]; 1-100 μM, hypoxic cells): dose dependent manner | entrapment in well oxygenated or normoxic cells (FaDu cells [5]; normoxia (20% Oxygen)): minimal to almost no entrapment | localization in tumor sections (FaDu xenograft tumors): co-localizes in hypoxic regions of FaDu xenograft tumors | staining detected by oxygen condition (FaDu cells [6]; 100 μM of each compound, 6 h): detected in oxygen deprived cells | sub-cellular distribution of signal (FaDu cells [6]; hypoxic <0.1% O2 cells, 100 μM): higher nuclear signal
